Experimental data: the NIST ThermoML archive (doi:10.1016/j.tca.2013.02.022)
± gives the expanded uncertainty stated by the source.

Experiment: cn = amount concentration of the nth substance listed, in mol/dm3
Settings: 298.15 K, 101 kPa, Liquid, Alternating current cell with electrodes

CCn1cc[n+](C)c1.[Br-] [1-ethyl-3-methylimidazolium bromide] + CC(=O)N(C)C
Settings	molar conductivity [S·m2/mol]
c1 = 0.000995	0.00429 ± 0.00011
c1 = 0.001858	0.004 ± 0.00011
c1 = 0.002527	0.00377 ± 9.4e-05
c1 = 0.003129	0.00364 ± 8.3e-05
c1 = 0.003697	0.00354 ± 7.8e-05
c1 = 0.004106	0.00348 ± 8.4e-05
c1 = 0.004509	0.00335 ± 8.4e-05
c1 = 0.005187	0.0032 ± 7.7e-05
c1 = 0.005736	0.00309 ± 7.3e-05
c1 = 0.005973	0.00305 ± 6.7e-05
c1 = 0.006388	0.003 ± 6.9e-05
c1 = 0.0073	0.00283 ± 6.8e-05
c1 = 0.007821	0.00273 ± 6.1e-05
c1 = 0.008279	0.0027 ± 6.4e-05
c1 = 0.008995	0.00254 ± 6.8e-05

CCn1cc[n+](C)c1.[Br-] [1-ethyl-3-methylimidazolium bromide] + CC#N
Settings	molar conductivity [S·m2/mol]
c1 = 0.000941	0.0155 ± 0.00032
c1 = 0.001725	0.0152 ± 0.00031
c1 = 0.002388	0.015 ± 0.00031
c1 = 0.002957	0.0149 ± 0.0003
c1 = 0.003994	0.0146 ± 0.0003
c1 = 0.0046	0.0145 ± 0.00029
c1 = 0.005175	0.0144 ± 0.00029
c1 = 0.005645	0.0143 ± 0.00029
c1 = 0.006038	0.0143 ± 0.00029
c1 = 0.006369	0.0142 ± 0.00029
c1 = 0.006654	0.0142 ± 0.00028
c1 = 0.007011	0.0141 ± 0.00028
c1 = 0.007656	0.014 ± 0.00028
c1 = 0.007998	0.0139 ± 0.00028
c1 = 0.008433	0.0139 ± 0.00028

CCn1cc[n+](C)c1.[Br-] [1-ethyl-3-methylimidazolium bromide] + C[S+](C)[O-]
Settings	molar conductivity [S·m2/mol]
c1 = 0.002105	0.00246 ± 5.5e-05
c1 = 0.003858	0.00225 ± 5e-05
c1 = 0.005342	0.00209 ± 4.6e-05
c1 = 0.006614	0.00198 ± 4.3e-05
c1 = 0.007717	0.0019 ± 4.1e-05
c1 = 0.008681	0.00182 ± 3.9e-05
c1 = 0.009532	0.00177 ± 3.8e-05
c1 = 0.01097	0.00166 ± 3.6e-05
c1 = 0.01213	0.00158 ± 3.4e-05
c1 = 0.0135	0.0015 ± 3.2e-05
c1 = 0.01458	0.00144 ± 3.1e-05
c1 = 0.01614	0.00136 ± 2.9e-05
c1 = 0.01721	0.0013 ± 2.8e-05
c1 = 0.01812	0.00126 ± 2.7e-05
c1 = 0.01902	0.00122 ± 2.6e-05

CCn1cc[n+](C)c1.[Br-] [1-ethyl-3-methylimidazolium bromide] + CO
Settings	molar conductivity [S·m2/mol]
c1 = 0.001828	0.00814 ± 0.00017
c1 = 0.002264	0.00804 ± 0.00017
c1 = 0.002683	0.00795 ± 0.00016
c1 = 0.003262	0.00784 ± 0.00016
c1 = 0.003528	0.00779 ± 0.00016
c1 = 0.004007	0.00771 ± 0.00016
c1 = 0.004303	0.00765 ± 0.00016
c1 = 0.004622	0.0076 ± 0.00015
c1 = 0.004858	0.00757 ± 0.00015
c1 = 0.005093	0.00753 ± 0.00015
c1 = 0.005282	0.0075 ± 0.00015
c1 = 0.005565	0.00746 ± 0.00015
c1 = 0.005822	0.00743 ± 0.00015
c1 = 0.006122	0.00739 ± 0.00015
c1 = 0.006338	0.00736 ± 0.00015

CCn1cc[n+](C)c1.[Br-] [1-ethyl-3-methylimidazolium bromide] + CN(C)C=O
Settings	molar conductivity [S·m2/mol]
c1 = 0.001828	0.00732 ± 0.00016
c1 = 0.002531	0.0071 ± 0.00016
c1 = 0.003133	0.0069 ± 0.00015
c1 = 0.003655	0.00675 ± 0.00014
c1 = 0.004225	0.00667 ± 0.00014
c1 = 0.004874	0.00652 ± 0.00014
c1 = 0.005483	0.00643 ± 0.00013
c1 = 0.005981	0.0063 ± 0.00013
c1 = 0.006397	0.00622 ± 0.00013
c1 = 0.006905	0.00616 ± 0.00013
c1 = 0.007429	0.0061 ± 0.00013
c1 = 0.007833	0.00604 ± 0.00013
c1 = 0.008291	0.00593 ± 0.00013
c1 = 0.008681	0.00587 ± 0.00012
c1 = 0.009008	0.00584 ± 0.00012
